Laboratory results reported in ChEMBL document CHEMBL5346950, “Development of Biaryl-Containing Aldo-Keto Reductase 1C3 (AKR1C3) Inhibitors for Reversing AKR1C3-Mediated Drug Resistance in Cancer Treatment” (J Med Chem, 2023).
pIC50: −log10 of the molar value.

Legend:
[1] = tested on: MCF7; experiment: Synergistic antiproliferative activity against human MCF7 cells overexpressing AKR1C3 assessed as dose reduction index for doxorubicin at 25 uM incubated for 72 hrs in presence of doxorubicin at 200 nM by Chou-Talalay method; assay type: functional
[2] = MRT (0 to infinity) in Sprague-Dawley rat at 10 mg/kg, IG measured for 5760 mins by LC-MS/MS analysis; assay type: ADME, organism-based; details: in vivo, po
[3] = target: Aldo-keto reductase family 1 member B1 (Homo sapiens, UniProt P15121); experiment: Inhibition of AKR1B1 (unknown origin) transfected in Escherichia coli BL21 (DE3) pLysS competent cells using pyridine-3-aldehyde as substrate assessed as inhibition of NADP+ dependent substrate oxidation incubated for 10 mins
[4] = tested on: MCF7; experiment: Synergistic antiproliferative activity against human MCF7 cells overexpressing AKR1C3 assessed as combination index at 25 uM incubated for 72 hrs in presence of doxorubicin at 50 nM by Chou-Talalay method; assay type: functional
[5] = Metabolic stability in liver microsomes (unknown origin) assessed as clearance; assay type: ADME, Microsome; details: read-out: CLH
[6] = tested on: MCF7; experiment: Synergistic antiproliferative activity against human MCF7 cells overexpressing AKR1C3 assessed as combination index at 50 uM incubated for 72 hrs in presence of doxorubicin at 200 nM by Chou-Talalay method; assay type: functional
[7] = tested on: MCF7; experiment: Synergistic antiproliferative activity against human MCF7 cells overexpressing AKR1C3 assessed as dose reduction index for doxorubicin at 10 uM incubated for 72 hrs in presence of doxorubicin at 100 nM by Chou-Talalay method; assay type: functional
[8] = tested on: MCF7; experiment: Synergistic antiproliferative activity against human MCF7 cells overexpressing AKR1C3 assessed as combination index at 10 uM incubated for 72 hrs in presence of doxorubicin at 200 nM by Chou-Talalay method; assay type: functional
[9] = tested on: MCF7; experiment: Synergistic antiproliferative activity against human MCF7 cells overexpressing AKR1C3 assessed as dose reduction index for doxorubicin at 50 uM incubated for 72 hrs in presence of doxorubicin at 20 nM by Chou-Talalay method; assay type: functional
[10] = AUC (0 to t) in Sprague-Dawley rat at 2 mg/kg, iv measured for 5760 mins by LC-MS/MS analysis; assay type: ADME, organism-based; set-up: dose 2 mg/kg, time 5760 min, route iv; details: in vivo
[11] = tested on: MCF7; experiment: Synergistic antiproliferative activity against human MCF7 cells overexpressing AKR1C3 assessed as dose reduction index for doxorubicin at 25 uM incubated for 72 hrs in presence of doxorubicin at 50 nM by Chou-Talalay method; assay type: functional
[12] = Tmax in Sprague-Dawley rat at 10 mg/kg, IG measured for 5760 mins by LC-MS/MS analysis; assay type: ADME, organism-based; details: in vivo, po
[13] = tested on: MCF7; experiment: Synergistic antiproliferative activity against human MCF7 cells overexpressing AKR1C3 assessed as combination index at 25 uM incubated for 72 hrs in presence of doxorubicin at 200 nM by Chou-Talalay method; assay type: functional
[14] = AUC (0 to infinity) in Sprague-Dawley rat at 2 mg/kg, iv measured for 5760 mins by LC-MS/MS analysis; assay type: ADME, organism-based; set-up: time 5760 min, dose 2 mg/kg, route iv; details: in vivo
[15] = Toxicity in BALB/c nude mouse xenografted with human MCF7 cells expressing AKR1C3 assessed as histopathological changes in spleen at 10 mg/kg, po administered every 2 days for 3 weeks in presence of doxorubicin by H and E staining based analysis; assay type: organism-based; details: in vivo, 504 h
[16] = tested on: MCF7; experiment: Synergistic antiproliferative activity against human MCF7 cells overexpressing AKR1C3 assessed as dose reduction index for doxorubicin at 10 uM incubated for 72 hrs in presence of doxorubicin at 20 nM by Chou-Talalay method; assay type: functional
[17] = Elimination phase half life in Sprague-Dawley rat at 10 mg/kg, IG measured for 5760 mins by LC-MS/MS analysis; assay type: ADME, organism-based; details: in vivo, po, read-out: beta t1/2 (converted)
[18] = tested on: MCF7; experiment: Synergistic antiproliferative activity against human MCF7 cells overexpressing AKR1C3 assessed as combination index at 50 uM incubated for 72 hrs in presence of doxorubicin at 20 nM by Chou-Talalay method; assay type: functional
[19] = tested on: MCF7; experiment: Synergistic antiproliferative activity against human MCF7 cells overexpressing AKR1C3 assessed as combination index at 50 uM incubated for 72 hrs in presence of doxorubicin at 100 nM by Chou-Talalay method; assay type: functional
[20] = target: Aldo-keto reductase family 1 member B10 (Homo sapiens, UniProt O60218); experiment: Inhibition of AKR1B10 (unknown origin) transfected in Escherichia coli BL21 (DE3) pLysS competent cells using pyridine-3-aldehyde as substrate assessed as inhibition of NADP+ dependent substrate oxidation incubated for 10 mins
Chain of Aldo-keto reductase family 1 member B10 (O60218 whole entry): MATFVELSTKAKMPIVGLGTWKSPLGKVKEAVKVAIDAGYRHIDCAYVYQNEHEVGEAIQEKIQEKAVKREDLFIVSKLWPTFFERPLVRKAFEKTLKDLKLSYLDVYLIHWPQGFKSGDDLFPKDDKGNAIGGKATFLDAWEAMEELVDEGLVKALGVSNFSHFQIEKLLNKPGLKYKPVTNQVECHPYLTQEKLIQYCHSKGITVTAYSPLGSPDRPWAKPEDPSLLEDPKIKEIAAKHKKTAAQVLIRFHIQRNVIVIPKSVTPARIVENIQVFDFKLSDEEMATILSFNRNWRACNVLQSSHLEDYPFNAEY

[21] = Octanol-water partition coefficient, logP of the compound; assay type: physicochemical
[22] = Toxicity in BALB/c nude mouse xenografted with human MCF7 cells expressing AKR1C3 assessed as histopathological changes in lungs at 10 mg/kg, po administered every 2 days for 3 weeks in presence of doxorubicin by H and E staining based analysis; assay type: organism-based; details: in vivo, 504 h
[23] = Cmax in Sprague-Dawley rat at 2 mg/kg, iv measured for 5760 mins by LC-MS/MS analysis; assay type: ADME, organism-based; set-up: dose 2 mg/kg, time 5760 min, route iv; details: in vivo
[24] = tested on: MCF7; experiment: Antiproliferative activity against human MCF7 cells transfected with AKR1C3 assessed as reduction in cell viability at 100 uM incubated for 72 hrs by MTT assay relative to control; assay type: functional
[25] = target: T1, Aldo-keto reductase family 1 member C1 (Homo sapiens, UniProt Q04828); experiment: Inhibition of human recombinant AKR1C1 transfected in Escherichia coli BL21 (DE3) pLysS competent cells using S-tetralol as substrate assessed as inhibition of NADP+ dependent substrate oxidation incubated for 10 mins by fluorescence microplate reader assay
T1 sequence (Q04828 whole entry): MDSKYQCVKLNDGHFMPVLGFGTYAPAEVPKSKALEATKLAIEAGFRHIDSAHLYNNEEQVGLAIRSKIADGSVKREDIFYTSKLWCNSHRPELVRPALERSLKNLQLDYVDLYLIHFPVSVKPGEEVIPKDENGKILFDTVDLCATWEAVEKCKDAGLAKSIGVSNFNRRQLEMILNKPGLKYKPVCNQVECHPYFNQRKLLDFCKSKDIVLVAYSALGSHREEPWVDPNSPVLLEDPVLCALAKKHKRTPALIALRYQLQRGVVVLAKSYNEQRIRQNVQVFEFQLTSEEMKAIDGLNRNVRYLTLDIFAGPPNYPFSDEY

[26] = tested on: MCF7; experiment: Synergistic antiproliferative activity against human MCF7 cells overexpressing AKR1C3 assessed as dose reduction index for doxorubicin at 25 uM incubated for 72 hrs in presence of doxorubicin at 100 nM by Chou-Talalay method; assay type: functional
[27] = tested on: MCF7; experiment: Synergistic antiproliferative activity against human MCF7 cells overexpressing AKR1C3 assessed as dose reduction index for doxorubicin at 50 uM incubated for 72 hrs in presence of doxorubicin at 100 nM by Chou-Talalay method; assay type: functional
[28] = tested on: MCF7; experiment: Synergistic antiproliferative activity against human MCF7 cells overexpressing AKR1C3 assessed as combination index at 10 uM incubated for 72 hrs in presence of doxorubicin at 50 nM by Chou-Talalay method; assay type: functional
[29] = Metabolic stability in liver microsomes (unknown origin) assessed as half life; assay type: ADME, Microsome
[30] = tested on: MCF7; experiment: Synergistic antitumor activity against human MCF7 cells expressing AKR1C3 xenografted in BALB/c nude mouse assessed as tumor growth inhibition at 10 mg/kg, po administered every 2 days for 3 weeks in presence of doxorubicin and measured every 3 days by caliper analysis relative to control; assay type: functional

SMILES: O=C(O)C1(c2ccc(-c3cc(Cl)cc(Cl)c3)c(F)c2)CC1
- Activity_index [1]: 5.636
- MRT inf [2]: 36.6 h
- pIC50 [3]: < 5.00
- CI [4]: 0.277
- CLint scaled [5]: 4.17 mL/min/kg
- CI [6]: 0.154
- Activity_index [7]: 4.423
- CI [8]: 0.319
- Activity_index [9]: 47.168
- AUC(0-t) at 96 h [10]: 552 ng·h/mL
- Activity_index [11]: 22.177
- Tmax [12]: 10 h
- CI [13]: 0.274
- AUC(0-inf) [14]: 654 ng·h/mL
- Activity [15]: Non-Toxic
- Activity_index [16]: 8.47
- half-life [17]: 21.3 h
- CI [18]: 0.246
- CI [19]: 0.214
- pIC50 [20]: < 5.00
- logP [21]: 1
- Activity [22]: Non-Toxic
- Cmax [23]: 24500 ng/mL
- Activity [24]: ~37%
- pIC50 [25]: 5.53
- Activity_index [26]: 5.813
- Activity_index [27]: 15.324
- CI [28]: 0.285
- half-life [29]: 6.94 h
- TGI [30]: 87.46%
